Six compounds from ChEMBL document CHEMBL1201862, “PubChem BioAssay data set” (2004) can be followed below.

A short description of experiment [1]: viability loss in MITF-independent A375 cells – cell-based, CellTiter-Glo luminescence, dry powder, set 6, counter-screen for MITF inhibitor project, dose response (AID 624488). Format: functional. The settings on record: A-375. (In general: ATP-based viability assays read luminescence as a measure of living cells.)
A short description of experiment [2]: growth inhibition of MALME3 cells – cell-based, CellTiter-Glo luminescence, dry powder, set 5, orthogonal assay for MITF inhibitor project, dose response (AID 651584). The experiment is classed as functional. The settings on record: MALME-3.
Experiment [3] can be described thus: viability loss in MITF-independent A375 cells – cell-based, CellTiter-Glo luminescence, dry powder, set 2, counter-screen for MITF inhibitor project, dose response (AID 624489).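 Note: actives are compounds lowering A375 viability meaning general cytotoxicity.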 Format: functional. The settings on record: A-375.
The nature of experiment [4]: MITF Orthogonal Assay: MALME3 CTG Assay Measured in Cell-Based System Using Plate Reader - 2084-04_Inhibitor_Dose_DryPowder_Activity_Set6. To be noted: MALME-3. Format: functional.
The nature of experiment [5]: viability loss in MITF-independent A375 cells – cell-based, CellTiter-Glo luminescence, dry powder, set 7, counter-screen for MITF inhibitor project, dose response (AID 624490). The experiment is classed as functional. To be noted: A-375.
Experiment [6] is described as follows: cytotoxicity in MITF-independent A375 cells – cell-based, CellTiter-Glo luminescence, dry powder, set 9, counter-screen for MITF modulator project, dose response (AID 651591). The experiment is classed as functional. To be noted: A-375.
Experiment [7] is described as follows: MITF Measured in Cell-Based System Using Plate Reader - 2084-01_Inhibitor_Dose_DryPowder_Activity_Set6. The experiment is classed as functional.
The nature of experiment [8]: cytotoxicity in MITF-independent A375 cells – cell-based, CellTiter-Glo luminescence, dry powder, set 4, counter-screen for MITF inhibitor project, dose response (AID 624364).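 Note: A375 melanoma cells are MITF independent so this is a counter screen.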 The experiment is classed as functional. To be noted: A-375.
The nature of experiment [9]: cytotoxicity in melanoma parental cells – cell-based, CellTiter-Glo, dry powder, set 6, MITF inhibitor project, dose response (AID 624429). To be noted: SK-MEL-5. Format: functional.
Experiment [10] in a line: MITF Orthogonal Assay: SK-MEL-5 CTG Assay Measured in Cell-Based System Using Plate Reader - 2084-02_Inhibitor_Dose_DryPowder_Activity_Set5. The experiment is classed as functional.
A short description of experiment [11]: growth inhibition of SK-MEL-5 melanoma cells – cell-based, CellTiter-Glo luminescence, dry powder, set 8, orthogonal assay for MITF inhibitor project, dose response (AID 651586). Format: functional.
The nature of experiment [12]: inhibitors of TRPM1-promoter reporter in SK-MEL-5 – cell-based, luciferase, dry powder, set 9, MITF inhibitor project, dose response (AID 651588). Format: functional.
Experiment [13] is described as follows: MITF Measured in Cell-Based System Using Plate Reader - 2084-01_Inhibitor_Dose_DryPowder_Activity_Set7. The experiment is classed as functional.
Experiment [14] is described as follows: IC50 of Artemis nuclease activity blockers – biochemical, fluorescence intensity, dose response (AID 720701).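 Note: Artemis endonuclease enzyme.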 Format: functional.
The nature of experiment [15]: Dd2 parasite growth inhibition in erythrocytes – SYBR Green, dry powder samples, set 9, dose response (AID 1159568). The experiment is classed as functional, cell-based.
Experiment [16] can be described thus: Dd2 parasite growth inhibition in erythrocytes – SYBR Green, dry powder samples, set 4, dose response (AID 1159572). Format: functional, cell-based.
Experiment [17] is described as follows: toxicity to HepG2 liver cells – cell-based, plate reader, dry powder, set 6, cytotoxicity control, dose response (AID 743311). The experiment is classed as functional.
The next experiment is described as follows: cells. The settings on record: HEK293.
The nature of experiment [18]: toxicity to A549 lung cells – cell-based, plate reader, dry powder, set 6, cytotoxicity control, dose response (AID 743312). Format: functional.
A short description of experiment [19]: alpha-synuclein stem-loop luciferase translation blockers – H4 neuroglioma cells, luminescence, confirmation (AID 1988). Format: functional, cell-based.
A short description of experiment [20]: Luminescence Cell-Based Dose Response HTS to Identify Inhibitors of 5'UTR Stem-Loop Driven Prion Protein mRNA Translation in H4 Neuroglioblastoma Cells. [Related pubchem assays: 1827 (Project Summary), 1813 (Primary HTS)]. Format: functional.
The subject of a further experiment is P388/ADR. As to the kind of experiment: cells. Format: functional. The settings on record: Mus musculus.
Experiment [21] concerns the target FAD-linked sulfhydryl oxidase ALR (Homo sapiens, UniProt P55789). Briefly: ALR-catalysed DTT oxidation blockers – biochemical, H2O2 detection, luminescence, cherry-pick, dose response (AID 493248).
A short description of experiment [22]: luciferase reporter signal suppression in cells – H4 neuroglioma cells, luminescence, dose response (AID 1990). The experiment is classed as functional, cell-based. On the technique in general: Reporter assays use an easily measured gene product as a stand-in for the process of interest.
The subject of the next experiment is P388. As to the kind of experiment: cells. Format: functional. The settings on record: Mus musculus.
The nature of experiment [23]: rise of 4N DNA cells, HeLa – IC50, dose response (AID 1117351). Format: functional, cell-based.
Experiment [24] can be described thus: rise of 2N DNA cells, HeLa – IC50, dose response (AID 1117349). Format: functional, cell-based.
Another experiment has as its system SN12K1. Briefly: cells. Format: functional. To be noted: Homo sapiens.
The nature of experiment [25]: CellTiter-Glo luminescence survival assay, SW480 colon tumor line, concentration-response curve, half-maximal inhibitory concentration (AID 1117338). Format: functional.
Experiment [26] in a line: SNU-C1 cell viability reduction, dose response, CellTiter-Glo luminescence (AID 1117323). The experiment is classed as functional, cell-based.
The nature of experiment [27]: RKO cell viability reduction, dose response, CellTiter-Glo luminescence (AID 1117322). The experiment is classed as functional.
A short description of experiment [28]: HCT116 cell viability decrease, GSK3B pretreatment – CellTiter-Glo, IC50, dose response (AID 1117339). The experiment is classed as functional. To be noted: HCT-116.
Experiment [29] is described as follows: cytotoxicity toward HCT116 cells – cell-based, CellTiter-Glo luminescence, IC50, dose response (AID 1117332). The settings on record: HCT-116. The experiment is classed as functional.
A short description of experiment [30]: Reduced DLD-1 viability, concentration-response, CellTiter-Glo luminescence (AID 1117352). Format: functional.
A short description of experiment [31]: cytotoxicity toward HT-29 cells – cell-based, CellTiter-Glo luminescence, IC50, dose response (AID 1117330). Format: functional.
Experiment [32] is described as follows: cytotoxicity toward Colo320 cells – cell-based, CellTiter-Glo luminescence, IC50, dose response (AID 1117334). The experiment is classed as functional. To be noted: COLO 320.

Counter-ions that a name gives are not always drawn. The source made the active and inactive calls.

FAD-linked sulfhydryl oxidase ALR, sequence (P55789 whole entry): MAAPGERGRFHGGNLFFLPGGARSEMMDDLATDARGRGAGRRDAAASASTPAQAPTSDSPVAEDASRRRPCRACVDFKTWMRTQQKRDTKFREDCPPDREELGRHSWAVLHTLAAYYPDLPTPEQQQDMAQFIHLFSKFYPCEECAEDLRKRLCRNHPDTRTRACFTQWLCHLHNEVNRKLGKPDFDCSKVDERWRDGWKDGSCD

As to `CN1CCN(C2=C(NS(=O)(=O)c3ccc(Br)s3)C(=O)c3ccccc3C2=O)CC1`, the AC50 (commonly the midpoint of the concentration-response curve, whichever way the signal moves) in experiment [1] was 26.3 µM (active); in experiment [2] it was 12 µM (active); in experiment [3], 47.4 µM (active); in experiment [4], 12 µM (active); in [5] it was > 70 µM (inactive); in experiment [6], > 70 µM (inactive). In addition, the half-maximal activity concentration (AC50) in [7] was 1.94 µM (active); in [8] it was 65 µM (active); in [9] it was 64.7 µM (active); in experiment [10], 11.2 µM (active); in [11] it was 36.8 µM (active); in [12], 8.02 µM (active). The AC50 in experiment [13] is 2.26 µM (active).
For the compound `COc1ccc(/C=N/NC(=O)c2nc(-c3ccccc3)cc(-c3ccccc3)n2)cc1`, the IC50 (usually the point on the concentration scale where inhibition reaches its midpoint) in [14] was > 20 µM (inactive).
In the case of `CCC(=O)N1CC2(CCN(C(=O)Nc3ccccc3F)CC2)c2c([nH]c3cc(OC)ccc23)[C@@H]1CO`, the values for the AC50 in [15] and in [16] were 0.561 µM (active) and 0.294 µM (active), respectively.
Take `Cc1cc2ncn(CCOc3ccccc3C)c2cc1C`: the AC50 in experiment [17] is 36.5 µM (active); in the experiment “cells”, 47.4 µM (active); in [18], 11.4 µM (active).
Regarding `O=C(O)CCCc1ccc(N(CCCl)CCCl)cc1` [CHLORAMBUCIL], the figures for the EC50 in experiment [19], in experiment [20] and in [22] were 32.6 µM (active), > 120 µM (not active) and > 120 µM (not active), respectively. In addition, the GI50 – broadly, the concentration giving 50% growth inhibition – with P388/ADR is 6.25 µM (inactive); in the experiment on P388 it was 3.73 µM (inactive); in the experiment on SN12K1, 49.5 µM (inactive). Further, the concentration at half-maximal activity (AC50) in [21] is < 0.005 µM (active). For the same compound, the IC50 in [23] and in experiment [24] was > 10 µM (inactive) throughout.
In the case of `CNS(=O)(=O)CCc1ccc2[nH]cc(C3CCN(C)CC3)c2c1` [NARATRIPTAN HYDROCHLORIDE], the IC50 in experiment [25] was > 20 µM (inactive); in experiment [26] it was > 20 µM (inactive); in experiment [27], > 20 µM (inactive); in experiment [28] it was 12.1 µM (inactive); in experiment [29], > 20 µM (inactive); in experiment [30], > 20 µM (inactive). In addition, the IC50 in [31] and in [32] was > 20 µM (inactive) each time.
